This is an account of results in patent publication US20240197593A1, “CLEANSING COMPOSITION FOR FEMALE INTIMATE HYGIENE” (Conopco, Inc., d/b/a UNILEVER, priority 2021, published 2024).

The test system of this data set is human cadaver skin. The conditions noted are these: normalized against time zero reading, average of 6 cells. The source says:
Electrical impedance is a proxy indicator of change in skin permeability.
The impedance reading at each cell at different time points was normalized against the time zero-minute reading of that cell. For each test formulation, the impedance reading of each time point is the average normalized value of the 6 repeat cells at that time point. Note: SDS=sodium dodecyl sulphate.

Each structure is given as a SMILES string. Read-outs that look alike come from different tables or passages of the source.

Regarding `CCCCCCCCCCCCOS(=O)(=O)[O-].[Na+]` [SDS, sodium dodecyl sulphate], the normalized electrical impedance reads like this: (time 0 minutes) 1.00; (time 5 minutes) 0.94; (time 10 minutes) 0.90; (time 15 minutes) 0.86; (time 30 minutes) 0.76.
